This note sets out measurements from patent US8658642B2 (Axikin Pharmaceuticals, Inc., priority 2009, dated 2014).

In one data set the target is T1, CCR3 (Homo sapiens, UniProt P51677).
T1 sequence (P51677 1-355): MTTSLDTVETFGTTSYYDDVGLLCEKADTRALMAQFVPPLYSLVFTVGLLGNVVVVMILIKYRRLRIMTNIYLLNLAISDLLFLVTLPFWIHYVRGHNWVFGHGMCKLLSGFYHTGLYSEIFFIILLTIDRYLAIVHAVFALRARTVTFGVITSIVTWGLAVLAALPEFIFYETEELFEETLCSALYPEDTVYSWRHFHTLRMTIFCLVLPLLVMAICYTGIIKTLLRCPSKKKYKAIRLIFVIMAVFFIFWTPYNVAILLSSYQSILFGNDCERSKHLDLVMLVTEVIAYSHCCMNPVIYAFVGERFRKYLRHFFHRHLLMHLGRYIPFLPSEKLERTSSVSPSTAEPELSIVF
The experiment in a line: CCR3 receptor binding assay ([125I]-labeled human eotaxin/CCL11 displacement on cells). As to conditions: 0.1 nM [125I]-labeled human eotaxin/CCL11, 2×10^5 cells/well, 60 min at room temperature. The essentials: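 Cells (2×10^5/well) incubated 60 min at room temperature with 0.1 nM [125I]-human eotaxin/CCL11 in 25 mM HEPES pH 7.6, MgCl2, CaCl2, 0.5% BSA. Bound radioactivity counted after filtration and 0.5 M NaCl washes. Non-specific binding defined with 500 nM unlabeled eotaxin.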

Usually melting point stands for the temperature, or range, at which the solid turns liquid. With `O=C(c1ccco1)N1CCN(S(=O)(=O)c2cc([N+](=O)[O-])ccc2Sc2cc(Cl)ccc2Cl)CC1` [Compound 166, (4-(2-(2,5-Dichlorophenylthio)-5-nitrophenylsulfonyl)piperazin-1-yl)(furan-2-yl)methanone], the melting point lay in the range of 199 to 202 °C.

By Ki is commonly meant a dissociation constant, usually derived from enzyme kinetics or from competition with a known ligand. Higher therefore signals lower affinity. Regarding `Cc1ccc(C)c(Sc2ccc([N+](=O)[O-])cc2S(=O)(=O)N2CCN(C(=O)c3ccccc3)CC2)c1` [Compound 172, (4-(2-(2,5-Dimethylphenylthio)-5-nitrophenylsulfonyl)piperazin-1-yl)(phenyl)methanone], the melting point was in the range of 190 to 193 °C. The molecule further registered a Ki at CCR3 greater than 5 µM.

For `O=C(c1ccccc1)N1CCN(S(=O)(=O)c2cc([N+](=O)[O-])ccc2Oc2cc(Cl)ccc2Cl)CC1` [Compound 182, (4-(2-(2,5-Dichlorophenoxy)-5-nitrophenylsulfonyl)piperazin-1-yl)(phenyl)methanone], the melting point lay in the range of 206 to 209 °C. This molecule registered a Ki on CCR3 greater than 5 µM.

For `O=C(Nc1ccc([N+](=O)[O-])cc1)N1CCN(S(=O)(=O)c2cc([N+](=O)[O-])ccc2Sc2cc(Cl)ccc2Cl)CC1` [Compound 195, 4-(2-(2,5-Dichlorophenylthio)-5-nitrophenylsulfonyl)-N-(4-nitrophenyl)-piperazine-1-carboxamide], at CCR3, the Ki is greater than 5 µM.

Molecule `CCOC(=O)CCNC(=S)N1CCN(S(=O)(=O)c2cc([N+](=O)[O-])ccc2Sc2cc(Cl)ccc2Cl)CC1` [Compound 198] came in with a Ki at CCR3 of no more than 0.05 µM.

In turn, `CS(=O)(=O)N1CCN(S(=O)(=O)c2cc([N+](=O)[O-])ccc2Sc2cc(Cl)ccc2Cl)CC1` [Compound 202, 1-(2-(2,5-Dichlorophenylthio)-5-nitrophenylsulfonyl)-4-(methylsulfonyl)-piperazine] showed a melting point of 277 to 281 °C. At CCR3, this molecule registered a Ki greater than 5 µM.

`CN(C)S(=O)(=O)N1CCN(S(=O)(=O)c2cc([N+](=O)[O-])ccc2Sc2cc(Cl)ccc2Cl)CC1` [Compound 203, 4-(2-(2,5-Dichlorophenylthio)-5-nitrophenylsulfonyl)-N,N-dimethyl-piperazine-1-sulfonamide] came in with a melting point of 231 to 234 °C. The same molecule came in with a Ki on CCR3 greater than 5 µM.

With `O=[N+]([O-])c1ccc(Sc2cc(Cl)ccc2Cl)c(S(=O)(=O)N2CCN(S(=O)(=O)c3ccccc3)CC2)c1` [Compound 204, 1-(2-(2,5-Dichlorophenylthio)-5-nitrophenylsulfonyl)-4-(phenylsulfonyl)-piperazine], the melting point was 236 to 239 °C. Further, at CCR3, the Ki is greater than 5 µM.

With `O=[N+]([O-])c1ccc(Sc2cc(Cl)ccc2Cl)c(S(=O)(=O)N2CCN(S(=O)(=O)c3ccc(C(F)(F)F)cc3)CC2)c1` [Compound 205, 1-(2-(2,5-dichlorophenylthio)-5-nitrophenylsulfonyl)-4-(4-(trifluoromethyl)phenylsulfonyl)piperazine], the melting point lay in the range of 264 to 267 °C. On CCR3, this molecule gave a Ki greater than 5 µM.
